According to PubChem BioAssay (NCI):
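Values below derive from 48-hour exposures of cells grown in 96-well plates, with endpoints linearly interpolated between the two concentrations bracketing the appropriate inhibition level. TGI: concentration producing complete growth inhibition.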

Key:
Test in all cases: NCI-60 cell line screen, 48 h
PC-3 prostate = tested on: PC-3 prostate
COLO 205 colon = tested on: COLO 205 colon
HOP-62 NSCLC = tested on: HOP-62 NSCLC
SNB-19 CNS = tested on: SNB-19 CNS
OVCAR-3 ovarian = tested on: OVCAR-3 ovarian
BT-549 breast = tested on: BT-549 breast
SN12C renal = tested on: SN12C renal
A498 renal = tested on: A498 renal
IGROV1 ovarian = tested on: IGROV1 ovarian
UACC-257 melanoma = tested on: UACC-257 melanoma
OVCAR-8 ovarian = tested on: OVCAR-8 ovarian
EKVX NSCLC = tested on: EKVX NSCLC
RPMI-8226 leukemia = tested on: RPMI-8226 leukemia
SK-MEL-5 melanoma = tested on: SK-MEL-5 melanoma
MDA-N = tested on: MDA-N
MCF7 breast = tested on: MCF7 breast
NCI/ADR-RES ovarian = tested on: NCI/ADR-RES ovarian
OVCAR-4 ovarian = tested on: OVCAR-4 ovarian
DU-145 prostate = tested on: DU-145 prostate
U251 CNS = tested on: U251 CNS
LOX IMVI melanoma = tested on: LOX IMVI melanoma
ACHN renal = tested on: ACHN renal
OVCAR-5 ovarian = tested on: OVCAR-5 ovarian
NCI-H226 lung = tested on: NCI-H226 lung
SF-539 CNS = tested on: SF-539 CNS
HS 578T breast = tested on: HS 578T breast
786-0 renal = tested on: 786-0 renal
CAKI-1 renal = tested on: CAKI-1 renal
SF-295 CNS = tested on: SF-295 CNS
SK-MEL-28 melanoma = tested on: SK-MEL-28 melanoma
HCT-116 colon = tested on: HCT-116 colon
UO-31 renal = tested on: UO-31 renal
TK-10 renal = tested on: TK-10 renal
UACC-62 melanoma = tested on: UACC-62 melanoma
SK-OV-3 ovarian = tested on: SK-OV-3 ovarian
NCI-H460 lung = tested on: NCI-H460 lung
SR leukemia = tested on: SR leukemia
SK-MEL-2 melanoma = tested on: SK-MEL-2 melanoma
MOLT-4 leukemia = tested on: MOLT-4 leukemia
NCI-H23 lung = tested on: NCI-H23 lung
SF-268 CNS = tested on: SF-268 CNS
HL-60(TB) leukemia = tested on: HL-60(TB) leukemia
A549 NSCLC = tested on: A549 NSCLC
SNB-75 CNS = tested on: SNB-75 CNS
HCT-15 colon = tested on: HCT-15 colon
SW-620 colon = tested on: SW-620 colon
NCI-H522 lung = tested on: NCI-H522 lung
K-562 leukemia = tested on: K-562 leukemia
M14 melanoma = tested on: M14 melanoma
CCRF-CEM leukemia = tested on: CCRF-CEM leukemia
RXF 393 renal = tested on: RXF 393 renal
HCC-2998 colon = tested on: HCC-2998 colon
MDA-MB-231 breast = tested on: MDA-MB-231 breast
KM12 colon = tested on: KM12 colon
T-47D breast = tested on: T-47D breast
MALME-3M melanoma = tested on: MALME-3M melanoma
MDA-MB-435 = tested on: MDA-MB-435
HOP-92 NSCLC = tested on: HOP-92 NSCLC
HT29 colon = tested on: HT29 colon

COc1ccc(-c2cc(-c3ccccc3)nc(/N=C\c3ccccc3)n2)c(O)c1 gave a TGI (PC-3 prostate) of over 100 µM, a TGI (COLO 205 colon) of over 100 µM and a TGI (HOP-62 NSCLC) of over 100 µM. The TGI (SNB-19 CNS) was over 100 µM, the TGI (OVCAR-3 ovarian) was over 100 µM and the TGI (BT-549 breast) was over 100 µM. For the same compound, the TGI (SN12C renal) was over 100 µM, the TGI (A498 renal) was over 100 µM and the TGI (IGROV1 ovarian) was over 100 µM. It also gave a TGI (UACC-257 melanoma) of over 100 µM, a TGI (OVCAR-8 ovarian) of over 100 µM and a TGI (EKVX NSCLC) of over 100 µM. The TGI (RPMI-8226 leukemia) was 5.71 µM, the TGI (SK-MEL-5 melanoma) was over 100 µM and the TGI (MDA-N) was over 100 µM. The TGI (MCF7 breast) was over 100 µM, the TGI (NCI/ADR-RES ovarian) was over 100 µM and the TGI (OVCAR-4 ovarian) was over 100 µM. For the same compound, the TGI (DU-145 prostate) was over 100 µM, the TGI (U251 CNS) was over 100 µM and the TGI (LOX IMVI melanoma) was over 100 µM. It also gave a TGI (ACHN renal) of over 100 µM, a TGI (OVCAR-5 ovarian) of over 100 µM and a TGI (NCI-H226 lung) of over 100 µM. The TGI (SF-539 CNS) was over 100 µM, the TGI (HS 578T breast) was over 100 µM and the TGI (786-0 renal) was over 100 µM. For the same compound, the TGI (CAKI-1 renal) was 8.39 µM, the TGI (SF-295 CNS) was over 100 µM and the TGI (SK-MEL-28 melanoma) was over 100 µM. It also gave a TGI (HCT-116 colon) of over 100 µM, a TGI (UO-31 renal) of over 100 µM and a TGI (TK-10 renal) of over 100 µM. The TGI (UACC-62 melanoma) was over 100 µM, the TGI (SK-OV-3 ovarian) was over 100 µM and the TGI (NCI-H460 lung) was over 100 µM. For the same compound, the TGI (SR leukemia) was over 24.1 µM, the TGI (SK-MEL-2 melanoma) was over 100 µM and the TGI (MOLT-4 leukemia) was over 100 µM. It also gave a TGI (NCI-H23 lung) of over 100 µM, a TGI (SF-268 CNS) of over 100 µM and a TGI (HL-60(TB) leukemia) of over 35.4 µM. It also gave a TGI (A549 NSCLC) of over 100 µM, a TGI (SNB-75 CNS) of over 100 µM and a TGI (HCT-15 colon) of over 100 µM. The TGI (SW-620 colon) was over 100 µM, the TGI (NCI-H522 lung) was over 100 µM and the TGI (K-562 leukemia) was over 100 µM. It also gave a TGI (M14 melanoma) of over 100 µM, a TGI (CCRF-CEM leukemia) of over 100 µM and a TGI (RXF 393 renal) of over 100 µM. The TGI (HCC-2998 colon) was over 100 µM, the TGI (MDA-MB-231 breast) was over 100 µM and the TGI (KM12 colon) was over 100 µM. It also gave a TGI (T-47D breast) of over 100 µM, a TGI (MALME-3M melanoma) of over 100 µM and a TGI (MDA-MB-435) of over 100 µM. The TGI (HOP-92 NSCLC) was over 100 µM and the TGI (HT29 colon) was over 100 µM.
O=C(c1c2c(cc3c1CC1(Cc4cc5c(cc4C1)CCCC5)C3)CCCC2)C(Br)Br gave a TGI (PC-3 prostate) of 26.9 µM, a TGI (COLO 205 colon) of 32.7 µM and a TGI (HOP-62 NSCLC) of over 81.7 µM. For the same compound, the TGI (SNB-19 CNS) was over 55.1 µM, the TGI (OVCAR-3 ovarian) was 38.9 µM and the TGI (BT-549 breast) was 21.6 µM. It also gave a TGI (SN12C renal) of 44.9 µM, a TGI (A498 renal) of 86.6 µM and a TGI (IGROV1 ovarian) of 27.1 µM. For the same compound, the TGI (UACC-257 melanoma) was 41.9 µM, the TGI (OVCAR-8 ovarian) was 50.4 µM and the TGI (EKVX NSCLC) was over 59.8 µM. For the same compound, the TGI (RPMI-8226 leukemia) was over 61.9 µM, the TGI (SK-MEL-5 melanoma) was 14.4 µM and the TGI (MDA-N) was 29 µM. For the same compound, the TGI (MCF7 breast) was 20.2 µM, the TGI (NCI/ADR-RES ovarian) was 50.7 µM and the TGI (OVCAR-4 ovarian) was 41.6 µM. It also gave a TGI (DU-145 prostate) of over 100 µM, a TGI (U251 CNS) of 30.3 µM and a TGI (LOX IMVI melanoma) of 3.42 µM. The TGI (ACHN renal) was 27 µM, the TGI (OVCAR-5 ovarian) was over 66.7 µM and the TGI (NCI-H226 lung) was 14.3 µM. It also gave a TGI (SF-539 CNS) of 38.3 µM, a TGI (HS 578T breast) of over 70.2 µM and a TGI (786-0 renal) of 29.1 µM. The TGI (CAKI-1 renal) was 24.2 µM, the TGI (SF-295 CNS) was over 100 µM and the TGI (SK-MEL-28 melanoma) was 30.7 µM. The TGI (HCT-116 colon) was 29.1 µM, the TGI (UO-31 renal) was 26.8 µM and the TGI (TK-10 renal) was 30.9 µM. It also gave a TGI (UACC-62 melanoma) of 34.3 µM, a TGI (SK-OV-3 ovarian) of 96.9 µM and a TGI (NCI-H460 lung) of over 100 µM. The TGI (SR leukemia) was 8.05 µM, the TGI (SK-MEL-2 melanoma) was 39.6 µM and the TGI (MOLT-4 leukemia) was 6.33 µM. The TGI (NCI-H23 lung) was 36.5 µM, the TGI (SF-268 CNS) was 41.7 µM and the TGI (HL-60(TB) leukemia) was over 39.1 µM. It also gave a TGI (A549 NSCLC) of over 100 µM, a TGI (SNB-75 CNS) of 31.7 µM and a TGI (HCT-15 colon) of 33 µM. For the same compound, the TGI (SW-620 colon) was 20.5 µM, the TGI (NCI-H522 lung) was 3.18 µM and the TGI (K-562 leukemia) was 18 µM. The TGI (M14 melanoma) was 15.7 µM, the TGI (CCRF-CEM leukemia) was 5.14 µM and the TGI (RXF 393 renal) was 28.7 µM. For the same compound, the TGI (HCC-2998 colon) was 54.3 µM, the TGI (MDA-MB-231 breast) was 38.2 µM and the TGI (KM12 colon) was 56.3 µM. The TGI (T-47D breast) was 27.9 µM, the TGI (MALME-3M melanoma) was 10.7 µM and the TGI (MDA-MB-435) was 28.7 µM. It also gave a TGI (HOP-92 NSCLC) of 31.9 µM and a TGI (HT29 colon) of 44.5 µM.
